Source: patent publication US20220267260A1, “COMPOUNDS CONTAINING A SULFONIC GROUP AS KAT INHIBITORS” (Epizyme, Inc., priority 2016, published 2022)

Columns and labels:
[1] = molecular target: T1, KAT5 (Homo sapiens, UniProt Q92993); test: KAT5 enzyme inhibition assay (SAMDI mass spectrometry); format: biochemical; conditions: His-TEV-FL KAT5-Flag enzyme construct
T1 construct: His-TEV tag (N, cleaved yes); made in house

[2] = molecular target: T2, KAT6A (Homo sapiens, UniProt Q92794); test: KAT6A enzyme inhibition assay (SAMDI mass spectrometry); format: biochemical; conditions: His-TEV-KAT6A 501-784 enzyme construct
T2 construct: His-TEV tag (N, cleaved yes); made in house
T2 sequence (Q92794 with tags, fused parts or gaps): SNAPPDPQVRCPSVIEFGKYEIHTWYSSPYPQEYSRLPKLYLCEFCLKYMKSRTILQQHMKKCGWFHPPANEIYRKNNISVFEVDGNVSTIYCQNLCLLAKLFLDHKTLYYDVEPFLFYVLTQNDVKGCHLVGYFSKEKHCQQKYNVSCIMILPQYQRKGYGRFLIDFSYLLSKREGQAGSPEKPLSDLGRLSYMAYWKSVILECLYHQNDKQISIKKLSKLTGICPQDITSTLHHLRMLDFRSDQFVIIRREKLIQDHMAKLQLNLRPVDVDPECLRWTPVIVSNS

T1 sequence (Q92993 with tags, fused parts or gaps): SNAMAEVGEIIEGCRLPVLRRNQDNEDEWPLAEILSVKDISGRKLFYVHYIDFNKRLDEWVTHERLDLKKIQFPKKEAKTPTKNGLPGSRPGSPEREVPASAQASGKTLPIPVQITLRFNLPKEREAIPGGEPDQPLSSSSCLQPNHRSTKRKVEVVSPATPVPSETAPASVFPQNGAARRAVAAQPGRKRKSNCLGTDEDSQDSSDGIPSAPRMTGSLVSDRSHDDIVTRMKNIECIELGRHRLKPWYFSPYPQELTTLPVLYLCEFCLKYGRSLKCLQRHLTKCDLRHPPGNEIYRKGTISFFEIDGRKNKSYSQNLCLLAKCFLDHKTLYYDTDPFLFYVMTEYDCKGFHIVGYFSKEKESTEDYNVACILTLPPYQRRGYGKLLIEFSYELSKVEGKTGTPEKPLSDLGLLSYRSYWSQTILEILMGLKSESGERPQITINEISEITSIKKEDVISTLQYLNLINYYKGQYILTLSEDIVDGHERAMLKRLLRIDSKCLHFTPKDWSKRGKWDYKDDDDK

| SMILES | IC50 [1] | IC50 [2] |
| --- | --- | --- |
| Cc1c(-c2ccccc2)ccc(F)c1C(=O)NNS(=O)(=O)c1ccc(Cl)cc1 [Compound I-241] | 50 to 100 µM | 10 to 50 µM |
| Cc1cc(-c2ccccc2)cc(C(=O)NN(C)S(=O)(=O)c2ccccc2)c1F [Compound I-242] | > 100 µM | 10 to 50 µM |
| Cc1c(-c2ccccc2)ccc(F)c1C(=O)NNS(=O)(=O)C1CCC1 [Compound I-243] | > 100 µM | > 100 µM |
| CNC(=O)c1ccc(S(=O)(=O)NNC(=O)c2cc(-c3ccccc3)cc(C)c2F)cc1 [Compound I-244] | 10 to 50 µM | ≤ 10 µM |
| O=S(=O)(NNCc1ccccc1F)c1ccccc1 [Compound I-245] | > 100 µM | > 100 µM |
| O=C(NNS(=O)(=O)c1ccc2ccccc2c1)c1cccc(-c2ccccc2)c1 [Compound I-246] | 50 to 100 µM | ≤ 10 µM |
| COc1ccc(Cn2ncc3c(C(=O)NNS(=O)(=O)c4ccccc4)cc(-c4ccccc4)cc32)cc1 [Compound I-247] | 50 to 100 µM | 10 to 50 µM |
| COc1ccc(Cn2cnc3c(C(=O)NNS(=O)(=O)c4ccccc4)cc(-c4ccccc4)cc32)cc1 [Compound I-248] | 50 to 100 µM | 10 to 50 µM |
| Cc1c(-c2ccccc2)ccc(F)c1C(=O)NNS(=O)(=O)C1CCCC1 [Compound I-249] | > 100 µM | > 100 µM |
| O=C(NNS(=O)(=O)c1ccccc1)c1cc(-c2ccccc2)cc(F)c1F [Compound I-250] | ≤ 10 µM | ≤ 10 µM |
| Cc1c(-c2ccccc2)ccc(F)c1C(=O)NNS(=O)(=O)c1ccccc1 [Compound I-251] | 50 to 100 µM | ≤ 10 µM |
| O=C(NNS(=O)(=O)c1ccccc1)c1ncccc1F [Compound I-252] | > 100 µM | 50 to 100 µM |
| O=C(NNS(=O)(=O)c1ccccc1)c1cc(-c2ccccc2)ccc1F [Compound I-253] | 50 to 100 µM | 10 to 50 µM |
| O=C(NNS(=O)(=O)c1ccccc1)N1CCCCC1 [Compound I-254] | > 100 µM | > 100 µM |
| Cc1cc(-c2ccccc2)cc(C(=O)NNS(=O)(=O)c2cccc(C(=O)N(C)C)c2)c1F [Compound I-255] | ≤ 10 µM | ≤ 10 µM |
| Cc1cc(-c2ccccc2)cc(C(=O)NNS(=O)(=O)c2cccc(C(=O)O)c2)c1F [Compound I-256] | 50 to 100 µM | ≤ 10 µM |
| Cc1cc(-c2ccccc2)cc(C(=O)N[C@@H](C#N)C2CCCCC2)c1F [Compound I-257] | > 100 µM | > 100 µM |
| Cc1c(-c2ccccc2)ccc(F)c1C(=O)NNS(=O)(=O)CC1CCCCC1 [Compound I-258] | 50 to 100 µM | 50 to 100 µM |
| Cn1cnc(-c2ccc(F)c(C(=O)NNS(=O)(=O)c3ccccc3)c2F)c1 [Compound I-259] | 10 to 50 µM | ≤ 10 µM |
| CC(C)C(Cc1ccccc1)C(=O)NNS(=O)(=O)c1ccccc1 (centres unmarked) [Compound I-260] | > 100 µM | > 100 µM |
| Cc1cc(-c2ccccc2)cc(C(=O)NNS(=O)(=O)c2cccc(CO)c2)c1F [Compound I-261] | ≤ 10 µM | ≤ 10 µM |
| O=C(NNS(=O)(=O)c1ccccc1)c1cc2ccccc2cc1F [Compound I-262] | 50 to 100 µM | ≤ 10 µM |
| Cc1cc(-c2ccccc2)cc(C(=O)NNS(=O)(=O)c2ccccc2Cl)c1F [Compound I-263] | ≤ 10 µM | ≤ 10 µM |

| SMILES | IC50 [1] | IC50 [2] |
| --- | --- | --- |
| O=C(NNS(=O)(=O)c1ccccc1)c1c(F)ccc(-c2ncc[nH]2)c1F [Compound I-264] | > 100 µM | 50 to 100 µM |
| CC(C)C(Cc1ccccc1)CS(=O)(=O)NNC(=O)c1ccccc1 (centres unmarked) [Compound I-265] | > 100 µM | > 100 µM |
| Cc1cccc(F)c1C(=O)NNS(=O)(=O)CC(Cc1ccccc1)C(C)C (centres unmarked) [Compound I-266] | > 100 µM | > 100 µM |
| Cc1cc(-c2ccccc2)cc(C(=O)NNS(=O)(=O)CC2CCOCC2)c1F [Compound I-267] | ≤ 10 µM | ≤ 10 µM |
| Cc1c(-c2ccccc2)ccc(F)c1C(=O)NNS(=O)(=O)CC(Cc1ccccc1)C(C)C (centres unmarked) [Compound I-268] | 10 to 50 µM | 10 to 50 µM |
| Cc1cc(-c2ccccc2F)cc(C(=O)NNS(=O)(=O)CC2CCCCC2)c1F [Compound I-269] | ≤ 10 µM | 10 to 50 µM |
| COCCOc1cccc(-c2cc(C)c(F)c(C(=O)NNS(=O)(=O)CC3CCCCC3)c2)c1 [Compound I-270] | ≤ 10 µM | 10 to 50 µM |
| Cc1cc(-c2ccccc2F)cc(C(=O)NNS(=O)(=O)c2ccccc2)c1F [Compound I-271] | ≤ 10 µM | ≤ 10 µM |
| COCCOc1cccc(-c2cc(C)c(F)c(C(=O)NNS(=O)(=O)C3CCCCC3)c2)c1 [Compound I-272] | 10 to 50 µM | 50 to 100 µM |
| Cc1cccc(-c2ccc(F)c(C(=O)NNS(=O)(=O)c3ccccc3)c2C)c1 [Compound I-273] | > 100 µM | 50 to 100 µM |
| Cc1cc(-c2cccc(F)c2)cc(C(=O)NNS(=O)(=O)CC2CCCN(C(=O)C3CCC3)C2)c1F (centres unmarked) [Compound I-274] | ≤ 10 µM | ≤ 10 µM |
| O=C(NNS(=O)(=O)C1CCCCC1)c1c(Cl)ccc(-c2ccccc2)c1Cl [Compound I-275] | > 100 µM | > 100 µM |
| Cc1cc(Cl)cc(C(=O)NNS(=O)(=O)CC2CCCCC2)c1F [Compound I-276] | ≤ 10 µM | 10 to 50 µM |
| COCCN1CCC(C(C)S(=O)(=O)NNC(=O)c2cc(-c3ccccc3)cc(C)c2F)CC1 (centres unmarked) [Compound I-277] | 10 to 50 µM | 10 to 50 µM |
| Cc1cc(-c2cccc(F)c2)cc(C(=O)NNS(=O)(=O)CC2CCCNC2)c1F (centres unmarked) [Compound I-278] | 50 to 100 µM | > 100 µM |
| COCCOc1cccc(-c2cc(C)c(F)c(C(=O)NNS(=O)(=O)c3ccccc3)c2)c1 [Compound I-279] | 10 to 50 µM | ≤ 10 µM |
| CCC(=O)N1CCCC(CS(=O)(=O)NNC(=O)c2cc(-c3ccccc3)cc(C)c2F)C1 (centres unmarked) [Compound I-280] | ≤ 10 µM | ≤ 10 µM |
| Cc1cc(-c2ccccc2)cc(C(=O)NNS(=O)(=O)CC2CCCN(C(=O)C(C)(C)C)C2)c1F (centres unmarked) [Compound I-281] | ≤ 10 µM | ≤ 10 µM |
| Cc1cc(-c2ccccc2)cc(C(=O)Nc2n[nH]c3ncccc23)c1F [Compound I-282] | 50 to 100 µM | 10 to 50 µM |
| Cn1cnc2c(C(=O)NNS(=O)(=O)C3CCCCC3)cc(-c3ccccc3)cc21 [Compound I-283] | > 100 µM | > 100 µM |
| Nc1ncc(-c2ccc(-c3ccccc3)cc2F)n1S(=O)(=O)c1ccccc1 [Compound I-284] | > 100 µM | > 100 µM |
| Cc1cc(-c2cccc(F)c2)cc(C(=O)NNS(=O)(=O)CC2CCCN(C(=O)OC(C)(C)C)C2)c1F (centres unmarked) [Compound I-285] | ≤ 10 µM | ≤ 10 µM |
| Cc1cc(C2CCCN(C)C2)cc(C(=O)NNS(=O)(=O)C2CCCCC2)c1F (centres unmarked) [Compound I-287] | > 100 µM | > 100 µM |

| SMILES | IC50 [1] | IC50 [2] |
| --- | --- | --- |
| Cc1nc(-c2ccccc2)cc(C(=O)NNS(=O)(=O)C2CCCCC2)c1F [Compound I-288] | 10 to 50 µM | 10 to 50 µM |
| COCC(=O)N1CCCC(CS(=O)(=O)NNC(=O)c2cc(-c3cccc(F)c3)cc(C)c2F)C1 (centres unmarked) [Compound I-289] | ≤ 10 µM | ≤ 10 µM |
| C=CCn1nc(NNS(=O)(=O)c2ccccc2)c2ccccc21 [Compound I-290] | > 100 µM | > 100 µM |
| Cc1nc(-c2cccc(F)c2)cc(C(=O)NNS(=O)(=O)CC2CCCN(C(=O)C3CCC3)C2)c1F (centres unmarked) [Compound I-291] | ≤ 10 µM | ≤ 10 µM |
| Cc1cc(-c2cccc(F)c2)cc(C(=O)NNS(=O)(=O)CC2CCCN(C(=O)C(C)C)C2)c1F (centres unmarked) [Compound I-292] | ≤ 10 µM | ≤ 10 µM |
| Cc1cc(Br)cc(C(=O)NNS(=O)(=O)C2CCCCC2)c1F [Compound I-293] | ≤ 10 µM | 50 to 100 µM |
| Cc1cc(-c2cccc(F)c2)cc(C(=O)NNS(=O)(=O)CC2CCCN(C(=O)C(C)(C)C)C2)c1F (centres unmarked) [Compound I-294] | ≤ 10 µM | ≤ 10 µM |
| Cc1cnc(CNC(=O)c2cc(-c3ccccc3)cc(C)c2F)[nH]1 [Compound I-295] | > 100 µM | > 100 µM |
| COCCN1CCCC(CS(=O)(=O)NNC(=O)c2cc(-c3ccccc3)cc(C)c2F)C1 (centres unmarked) [Compound I-297] | 10 to 50 µM | ≤ 10 µM |
| COc1cccc(-c2cc(C)c(F)c(C(=O)NNS(=O)(=O)CC3CCCCC3)c2)c1 [Compound I-298] | ≤ 10 µM | 10 to 50 µM |
| Cc1cc(Cl)cc(C(=O)NNS(=O)(=O)C2CCCCC2)c1F [Compound I-299] | 10 to 50 µM | 50 to 100 µM |
| CCc1cc(C)c(F)c(C(=O)NNS(=O)(=O)C2CCCCC2)c1 [Compound I-300] | 10 to 50 µM | 50 to 100 µM |
| Cc1cccc(-c2cc(C)c(F)c(C(=O)NNS(=O)(=O)C3CCCCC3)c2)c1 [Compound I-301] | 10 to 50 µM | 50 to 100 µM |
| COc1ccccc1-c1cc(C)c(F)c(C(=O)NNS(=O)(=O)C2CCCCC2)c1 [Compound I-302] | 50 to 100 µM | 50 to 100 µM |
| CC(=O)N1CC(CS(=O)(=O)NNC(=O)c2cc(-c3ccccc3)cc(C)c2F)C1 [Compound I-303] | 10 to 50 µM | ≤ 10 µM |
| COc1ccccc1-c1cc(C)c(F)c(C(=O)NNS(=O)(=O)c2ccccc2)c1 [Compound I-304] | 50 to 100 µM | ≤ 10 µM |
| O=C(NNS(=O)(=O)c1cccc(Cl)c1)c1c(F)ccc(-c2cn[nH]c2)c1F [Compound I-305] | > 100 µM | 10 to 50 µM |
| O=C(NNS(=O)(=O)C1CCCCC1)c1cc(-c2ccccc2)cc(Cl)c1F [Compound I-306] | ≤ 10 µM | ≤ 10 µM |
| Cc1cc(-c2ccccc2)cc(C(=O)NNS(=O)(=O)C(C)C2CCN(C(=O)OC(C)(C)C)CC2)c1F (centres unmarked) [Compound I-307] | 10 to 50 µM | ≤ 10 µM |
| Cc1c(-c2ccccc2)ccc(Cl)c1C(=O)NNS(=O)(=O)C1CCCCC1 [Compound I-308] | 50 to 100 µM | > 100 µM |
| Cc1cc(-c2ccccc2)cc(C(=O)NNc2ncccn2)c1F [Compound I-309] | > 100 µM | > 100 µM |
